Reference: patent publication US20250215039A1, “NUCLEOSIDES FOR TREATING CANCER” (PRIMEFOUR THERAPEUTICS, INC., priority 2022, published 2025)
Where two headings read alike, the source gives them in different places.

System: cancer cell lines
Assay: Cancer cell proliferation activity (CellTiterGlo, 72 h)
Assay type: cell-based
Conditions: 72 h, 72 h, read-out: IC50 cell proliferation
Procedure, shortened: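 Cells seeded overnight at 37 °C, then dosed with compound at 0.1% final DMSO and incubated 72 h at 37 °C (5% or 10% CO2 by medium).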

`Nc1nc(F)nc2c1ncn2[C@H]1C[C@H](O)[C@@H](CO)O1` [compound 171, (2R,3S,5R)-5-(6-amino-2-fluoro-9H-purin-9-yl)-2-(hydroxymethyl)tetrahydrofuran-3-ol] showed an IC50 (5637 (bladder)) of 950 nM, an IC50 (CLS439 (bladder)) of 2640 nM and an IC50 (HS729 (muscle)) of 440 nM. For the same molecule, the IC50 (J82 (bladder)) was 1810 nM, the IC50 (JAR (placenta)) was 1600 nM and the IC50 (MT3 (breast)) was 230 nM. The IC50 (PANCI (pancreas)) was 5060 nM, the IC50 (PC3 (prostate)) was 280 nM and the IC50 (RD (muscle)) was 960 nM. It also gave an IC50 (T24 (bladder)) of 560 nM, an IC50 (Homo sapiens, 22Rv1, 72 h, 22RV1 (prostate)) of 2890 nM and an IC50 (Homo sapiens, 786-0, 72 h, 786O (kidney)) of 1570 nM. It also gave an IC50 (Homo sapiens, A204, 72 h, A204 (muscle)) of 190 nM, an IC50 (Homo sapiens, A549, 72 h, A549 (lung)) of 1330 nM and an IC50 (Homo sapiens, A673, 72 h, A673 (bone)) of 2530 nM. For the same molecule, the IC50 (Homo sapiens, A2780, 72 h, A2780 (ovary)) was 1670 nM, the IC50 (Homo sapiens, A-375, 72 h, A375 (skin)) was 570 nM and the IC50 (Homo sapiens, A-431, 72 h, A431 (skin)) was 1240 nM. The IC50 (Homo sapiens, ACHN, ACHN (kidney)) was 1050 nM, the IC50 (Homo sapiens, ASPC1, 72 h, ASPC1 (pancreas)) was 320 nM and the IC50 (Homo sapiens, BT-20, 72 h, BT20 (breast)) was 2120 nM. The IC50 (Homo sapiens, BXPC-3, 72 h, BXPC3 (pancreas)) was 430 nM, the IC50 (Homo sapiens, C-33-A, C33A (endometrial)) was 410 nM and the IC50 (Homo sapiens, CAKI-1, 72 h, CAKI1 (kidney)) was 130 nM. The IC50 (Homo sapiens, COLO 205, 72 h, COLO205 (colon)) was 420 nM, the IC50 (Homo sapiens, COLO-678, 72 h, COLO678 (colon)) was 630 nM and the IC50 (Homo sapiens, Ca-Ski, CASKI (endometrial)) was 990 nM. It also gave an IC50 (Homo sapiens, Caco-2, 72 h, CACO2 (colon)) of 3520 nM, an IC50 (Homo sapiens, Calu-6, 72 h, CALU6 (lung)) of 400 nM and an IC50 (Homo sapiens, DLD-1, 72 h, DLD1 (colon)) of 1030 nM. It also gave an IC50 (Homo sapiens, DU-145, 72 h, DU145 (prostate)) of 340 nM, an IC50 (Homo sapiens, EFO-21, 72 h, EFO21 (ovary)) of 460 nM and an IC50 (Homo sapiens, EJ-28, 72 h, EJ28 (bladder)) of 1060 nM. The IC50 (Homo sapiens, Granta-519, 72 h, GRANTA-519 (hematological)) was 680 nM, the IC50 (Homo sapiens, HCT-15, 72 h, HCT15 (colon)) was 2010 nM and the IC50 (Homo sapiens, HCT-116, 72 h, HCT116 (colon)) was 1030 nM. For the same molecule, the IC50 (Homo sapiens, HEK293, 72 h, HEK293 (kidney)) was 3610 nM, the IC50 (Homo sapiens, HL-60, 72 h, HL-60 (hematological)) was 230 nM and the IC50 (Homo sapiens, HT-29, 72 h, HT29 (colon)) was 700 nM. The IC50 (Homo sapiens, HT-1080, 72 h, HT1080 (connective tissue)) was 2790 nM, the IC50 (Homo sapiens, HeLa, HELA (endometrial)) was 310 nM and the IC50 (Homo sapiens, HepG2, 72 h, HEPG2 (liver)) was 2750 nM. It also gave an IC50 (Homo sapiens, Hs-578T, HS578T (breast)) of 1640 nM, an IC50 (Homo sapiens, IGROV-1, 72 h, IGROV1 (ovary)) of 1280 nM and an IC50 (Homo sapiens, IMR-90, 72 h, IMR90 (lung)) of 540 nM. It also gave an IC50 (Homo sapiens, JEG-3, 72 h, JEG3 (placenta)) of 2570 nM, an IC50 (Homo sapiens, JIMT-1, 72 h, JIMT1 (breast)) of 180 nM and an IC50 (Homo sapiens, K562, 72 h, K-562 (hematological)) of 5680 nM. The IC50 (Homo sapiens, Kasumi 1, 72 h, KASUMI-1 (hematological)) was 60 nM, the IC50 (Homo sapiens, L-363, 72 h, L-363 (hematological)) was 920 nM and the IC50 (Homo sapiens, LoVo, LOVO (colon)) was 440 nM. It also gave an IC50 (Homo sapiens, MCF7, 72 h, MCF7 (breast)) of 3060 nM, an IC50 (Homo sapiens, MDA-MB-231, 72 h, MDAMB231 (breast)) of 160 nM and an IC50 (Homo sapiens, MDA-MB-435, 72 h, MDAMB435 (skin)) of 2470 nM. The IC50 (Homo sapiens, MDA-MB-436, 72 h, MDAMB436 (breast)) was 620 nM, the IC50 (Homo sapiens, MDA-MB-468, 72 h, MDAMB468 (breast)) was 1440 nM and the IC50 (Homo sapiens, MG-63, 72 h, MG63 (bone)) was 1630 nM. The IC50 (Homo sapiens, MHH-ES-1, 72 h, MHHES1 (bone)) was 460 nM, the IC50 (Homo sapiens, MIA PaCa-2, 72 h, MIAPACA2 (pancreas)) was 2950 nM and the IC50 (Homo sapiens, MINO, MINO (hematological)) was 40 nM. The IC50 (Homo sapiens, MV4-11, 72 h, MV4-11 (hematological)) was 270 nM, the IC50 (Homo sapiens, NCI-H23, 72 h, NCI-H23 (lung)) was 2040 nM and the IC50 (Homo sapiens, NCI-H82, 72 h, NCIH82 (lung)) was 1600 nM. It also gave an IC50 (Homo sapiens, NCI-H292, 72 h, NCIH292 (lung)) of 2330 nM, an IC50 (Homo sapiens, NCI-H460, 72 h, NCIH460 (lung)) of 1950 nM and an IC50 (Homo sapiens, OVCAR-3, 72 h, OVCAR3 (ovary)) of 350 nM. For the same molecule, the IC50 (Homo sapiens, OVCAR-4, 72 h, OVCAR4 (ovary)) was 1860 nM, the IC50 (Homo sapiens, PLC-PRF-5, 72 h, PLCPRF5 (liver)) was 2840 nM and the IC50 (Homo sapiens, Panc1005, 72 h, PANC1005 (pancreas)) was 660 nM. For the same molecule, the IC50 (Homo sapiens, Ramos, RAMOS (hematological)) was 420 nM, the IC50 (Homo sapiens, SAOS-2, 72 h, SAOS2 (bone)) was 110 nM and the IC50 (Homo sapiens, SF-268, 72 h, SF268 (brain)) was 3020 nM. The IC50 (Homo sapiens, SF-295, 72 h, SF295 (brain)) was 3580 nM, the IC50 (Homo sapiens, SK-BR-3, 72 h, SKBR3 (breast)) was 140 nM and the IC50 (Homo sapiens, SK-HEP1, 72 h, SKHEP1 (liver)) was 280 nM. For the same molecule, the IC50 (Homo sapiens, SK-LMS-1, 72 h, SKLMS1 (uterus)) was 3020 nM, the IC50 (Homo sapiens, SK-MEL-5, 72 h, SKMEL5 (skin; SKMELS [sic] in Table 9E)) was 1970 nM and the IC50 (Homo sapiens, SK-MEL-28, 72 h, SKMEL28 (skin)) was 980 nM. For the same molecule, the IC50 (Homo sapiens, SK-N-AS, SKNAS (brain)) was 2550 nM, the IC50 (Homo sapiens, SK-N-SH, SKNSH (brain)) was 2260 nM and the IC50 (Homo sapiens, SK-OV-3, 72 h, SKOV3 (ovary)) was 510 nM. The IC50 (Homo sapiens, SNB-75, 72 h, SNB75 (brain)) was 1470 nM, the IC50 (Homo sapiens, SU-DHL10, 72 h, SU-DHL-10 (hematological)) was 730 nM and the IC50 (Homo sapiens, SU-DHL-6, 72 h, SU-DHL-6 (hematological)) was 980 nM. The IC50 (Homo sapiens, SW-620, 72 h, SW620 (colon)) was 680 nM, the IC50 (Homo sapiens, TE-671, 72 h, TE671 (muscle)) was 780 nM and the IC50 (Homo sapiens, THP-1, 72 h, THP-1 (hematological)) was 130 nM. For the same molecule, the IC50 (Homo sapiens, U2OS, U20S (bone; U2OS in Table 9E)) was 960 nM, the IC50 (Homo sapiens, U-87 MG, U87MG (brain)) was 620 nM and the IC50 (Homo sapiens, UMUC3, 72 h, UMUC3 (bladder)) was 970 nM. The IC50 (Homo sapiens, UO-31, 72 h, UO31 (kidney)) was 420 nM, the IC50 (Homo sapiens, WSU-NHL, WSU-NHL (hematological)) was 340 nM and the IC50 (NCI-H358M, NCIH358M (lung)) was 60 nM. It also gave an IC50 (PBMC, PBMC (hematological)) of 150 nM and an IC50 (RD-ES, RDES (bone)) of 820 nM.
